Laboratory results from patent publication US20230091047A1 (priority 2019, published 2023).
Where two headings read alike, the source gives them in different places.

Key:
[1] = tested on: HBV (HepG2.117 cell line, inducibly HBV producing); experiment: Anti-HBV activity: intracellular HBV DNA by real-time PCR in HepG2.117 cells after 3 days of treatment; format: cell-based, hepatitis B virus; conditions: HepG2.117 cells, intracellular HBV DNA by real-time PCR, 3 days of treatment, mean value, read-out: EC50 (μM, mean value)
Procedure, shortened: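 Inducible HBV-producing HepG2.117 line (Tet-off); 3-day exposure to serially diluted compound after induction; real-time PCR of intracellular viral DNA.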

[2] = in vitro; format: cell-based; conditions: human, HepG2 or HepG2.117 cells, ATPlite, 3-days incubation (not marked with *), mean value
Procedure, shortened: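 Luminescent ATP quantitation served as the viability endpoint following a 3- or 4-day incubation with test compounds.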

[3] = Hepatitis B virus, HepG2.117, 72 h

| Compound | EC50 [1, 3] [µM] | CC50 at 3 days [2] [µM] | EC50 [1] [µM] |
| --- | --- | --- | --- |
| CC(=O)Nc1ccc(-n2c(NC(C)C)nc3c(c2=O)C[C@@H](C)N(C(=O)c2ccc(Cl)c(Cl)c2)C3)cc1 [Compound C409] | 0.11 | > 50 | – |
| COc1ccc(C(C)Nc2nc3c(c(=O)n2-c2ccc(NC(C)=O)cc2)C[C@@H](C)N(C(=O)c2ccc(Cl)c(Cl)c2)C3)cc1 (stereo partly drawn) [Compound C410] | 0.13 | 32.6 | – |
| CNC(=O)c1ccc(-n2c(N[C@H](C)c3ccc(OC(F)F)cc3)nc3c(c2=O)C[C@@H](C)N(C(=O)c2ccc(Cl)c(Cl)c2)C3)cc1 [Compound C411a] | – | 47.4 | 1.02 |
| CNC(=O)c1ccc(-n2c(NC(C)c3ccc(S(C)(=O)=O)cc3)nc3c(c2=O)C[C@@H](C)N(C(=O)c2ccc(Cl)c(Cl)c2)C3)cc1 (stereo partly drawn) [Compound C412] | 1.6 | > 50 | – |
| CNC(=O)c1ccc(-n2c(NC(C)c3ccc(C(F)(F)F)cc3)nc3c(c2=O)C[C@@H](C)N(C(=O)c2ccc(Cl)c(Cl)c2)C3)cc1 (stereo partly drawn) [Compound C413] | 0.15 | 6.5 | – |
| CNC(=O)c1ccc(-n2c(NC(C)C)nc3c(c2=O)C[C@@H](C)N(C(=O)c2ccc(C(F)F)c(Cl)c2)C3)cc1 [Compound C418] | 0.08 | > 50 | – |
| CNC(=O)c1ncc(-n2c(NC(C)C)nc3c(c2=O)C[C@@H](C)N(C(=O)c2ccc(Cl)c(Cl)c2)C3)n1C [Compound C419] | 0.19 | > 50 | – |
| CNC(=O)c1ccc(-n2c(NC(C)C)nc3c(c2=O)C[C@@H](C)N(C(=O)c2ccc(Cl)c(Cl)c2)C3)c(C(C)C)c1 [Compound C420] | – | 25 | 0.61 |
| CNC(=O)c1ccc(-n2c(Nc3cn(C)nn3)nc3c(c2=O)C[C@@H](C)N(C(=O)c2ccc(Cl)c(Cl)c2)C3)cc1 [Compound C421] | > 8.1 | > 50 | – |
| CNC(=O)c1ccc(-n2c(NCc3c[nH]nn3)nc3c(c2=O)C[C@@H](C)N(C(=O)c2ccc(Cl)c(Cl)c2)C3)cc1 [Compound C423] | > 7.4 | > 50 | – |
| CNC(=O)c1cc(-n2c(NC(C)C)nc3c(c2=O)C[C@@H](C)N(C(=O)c2ccc(Cl)c(Cl)c2)C3)n(C(C)C)n1 [Compound C424] | 0.93 | > 50 | – |
| CNC(=O)c1ccc(-n2c(NC(C)C)nc3c(c2=O)C[C@@H](C)N(C(=O)c2ccc(Cl)c(C(F)F)c2)C3)cc1 [Compound C427] | 0.05 | > 50 | – |
| CNC(=O)c1ccc(-n2c(NC(C)C)nc3c(c2=O)C[C@@H](C)N(C(=O)c2ccc(Cl)c(C(F)(F)F)c2)C3)cc1 [Compound C428] | 0.03 | > 50 | – |
| CNC(=O)c1ccc(-n2c(NC(C)C)nc3c(c2=O)C[C@@H](C)N(C(=O)c2ccc(Cl)c(C)c2)C3)cc1 [Compound C429] | 0.06 | > 50 | – |
| CC(C)Nc1nc2c(c(=O)n1-c1ccc(-n3ccnn3)cc1)C[C@@H](C)N(C(=O)c1ccc(Cl)c(Cl)c1)C2 [Compound C430] | 0.06 | > 50 | – |
| CNC(=O)c1ccc(-n2c(N[C@@H](C)c3ccc(C)cc3)nc3c(c2=O)C[C@@H](C)N(C(=O)c2ccc(Cl)c(Cl)c2)C3)cc1 [Compound C431] | 0.03 | 20.6 | – |
| CNC(=O)c1cc(-n2c(N[C@@H](C)c3ccc(F)cc3)nc3c(c2=O)C[C@@H](C)N(C(=O)c2ccc(Cl)c(Cl)c2)C3)[nH]n1 [Compound C432] | 0.1 | 21.4 | – |
| CNC(=O)c1ccc(-n2c(NC(C)c3cc(C)no3)nc3c(c2=O)C[C@@H](C)N(C(=O)c2ccc(Cl)c(Cl)c2)C3)cc1 (stereo partly drawn) [Compound C433] | 0.33 | > 50 | – |
| CNC(=O)c1ccc(-n2c(NC(C)c3nccs3)nc3c(c2=O)C[C@@H](C)N(C(=O)c2ccc(Cl)c(Cl)c2)C3)cc1 (stereo partly drawn) [Compound C434] | 0.57 | > 50 | – |
| CNC(=O)c1ccc(-n2c(NC(CC3CC3)c3ccccc3)nc3c(c2=O)C[C@@H](C)N(C(=O)c2ccc(Cl)c(Cl)c2)C3)cc1 (stereo partly drawn) [Compound C437] | 0.44 | 28.1 | – |
| CNC(=O)c1ccc(-n2c(NC(C)c3ccccc3OC(F)F)nc3c(c2=O)C[C@@H](C)N(C(=O)c2ccc(Cl)c(Cl)c2)C3)cc1 (stereo partly drawn) [Compound C438] | 0.4 | 31.2 | – |

| Compound | EC50 [1, 3] [µM] | CC50 at 3 days [2] [µM] | EC50 [1] [µM] |
| --- | --- | --- | --- |
| CC(C)Nc1nc2c(c(=O)n1-c1cccc(-n3ccnn3)c1)C[C@@H](C)N(C(=O)c1ccc(Cl)c(Cl)c1)C2 [Compound C442] | 0.21 | > 50 | – |
| CNC(=O)c1ccc(-n2c(N[C@@H](C)c3ccccc3C(F)(F)F)nc3c(c2=O)C[C@@H](C)N(C(=O)c2ccc(Cl)c(Cl)c2)C3)cc1 [Compound C443] | 0.45 | 7.2 | – |
| CNC(=O)c1ccc(-n2c(N3CC4CC3(C)C4)nc3c(c2=O)C[C@@H](C)N(C(=O)c2ccc(Cl)c(Cl)c2)C3)cc1 [Compound C444] | 0.06 | 37.6 | – |
| CNC(=O)c1ccc(-n2c(N[C@@H](C)c3ccccc3Cl)nc3c(c2=O)C[C@@H](C)N(C(=O)c2ccc(Cl)c(Cl)c2)C3)cc1 [Compound C445] | 0.28 | 24.1 | – |
| CNC(=O)c1ccc(-n2c(O[C@@H](C)C(C)C)nc3c(c2=O)C[C@@H](C)N(C(=O)c2ccc(Cl)c(Cl)c2)C3)cc1 [Compound C446] | 0.03 | 27.6 | – |
| CNc1noc2cc(-n3c(NC(C)C)nc4c(c3=O)C[C@@H](C)N(C(=O)c3ccc(Cl)c(Cl)c3)C4)c(C)cc12 [Compound C447] | – | > 50 | 0.1 |
| CC(C)Nc1nc2c(c(=O)n1-c1cccc(-c3cn[nH]n3)c1)C[C@@H](C)N(C(=O)c1ccc(Cl)c(Cl)c1)C2 [Compound C448] | 0.12 | 27.9 | – |
| CNC(=O)c1ccc(-n2c(NCC34C5C6C7C5C3C7C64)nc3c(c2=O)C[C@@H](C)N(C(=O)c2ccc(Cl)c(Cl)c2)C3)cc1 (stereo partly drawn) [Compound C451] | 0.41 | > 50 | – |
| CNC(=O)c1ccc(-n2c(N[C@H]3C[C@@H]3c3ccc(OC)cc3)nc3c(c2=O)C[C@@H](C)N(C(=O)c2ccc(Cl)c(Cl)c2)C3)cc1 [Compound C452] | – | > 50 | 2.91 |
| CC(C)Nc1nc2c(c(=O)n1-c1ccc(-c3nn[nH]n3)cc1)C[C@@H](C)N(C(=O)c1ccc(Cl)c(Cl)c1)C2 [Compound C453] | 5.81 | > 50 | – |
| CNC(=O)C12C3C4C1C1C2C3C41n1c(NC(C)C)nc2c(c1=O)C[C@@H](C)N(C(=O)c1ccc(Cl)c(Cl)c1)C2 (stereo partly drawn) [Compound C456] | 0.4 | > 50 | – |
| CNC(=O)c1ccc(-n2c(N(C)Cc3cccc(OC)c3)nc3c(c2=O)C[C@@H](C)N(C(=O)c2ccc(Cl)c(Cl)c2)C3)cc1 [Compound C457] | 0.1 | 38.1 | – |
| CNC(=O)c1ccc(-n2c(O[C@H](C)C(C)C)nc3c(c2=O)C[C@@H](C)N(C(=O)c2ccc(Cl)c(Cl)c2)C3)cc1 [Compound C458] | 0.06 | 24.8 | – |
| CNC(=O)c1ccc(-n2c(NC(C)C(C)(C)C)nc3c(c2=O)C[C@@H](C)N(C(=O)c2ccc(Cl)c(Cl)c2)C3)cc1 (stereo partly drawn) [Compound C459] | 0.24 | 28.6 | – |
| CC(C)Nc1nc2c(c(=O)n1-c1ccc(-n3cnnn3)cc1)C[C@@H](C)N(C(=O)c1ccc(Cl)c(Cl)c1)C2 [Compound C460] | 0.09 | > 50 | – |
| CNC(=O)c1ccc(-n2c(NC34C5C6C7C5C3C7C64)nc3c(c2=O)C[C@@H](C)N(C(=O)c2ccc(Cl)c(Cl)c2)C3)cc1 (stereo partly drawn) [Compound C461] | 1.45 | > 50 | – |
| CNC(=O)c1ccc(-n2c(NCc3ccn(-c4ccc(F)cc4)n3)nc3c(c2=O)C[C@@H](C)N(C(=O)c2ccc(Cl)c(Cl)c2)C3)cc1 [Compound C465] | 0.65 | 22.6 | – |
| CNC(=O)c1ccc(-n2c(N[C@@H]3CCO[C@H]3c3ccccc3)nc3c(c2=O)C[C@@H](C)N(C(=O)c2ccc(Cl)c(Cl)c2)C3)cc1 [Compound C466] | 1.43 | 31.5 | – |
| CNC(=O)c1ccc(-n2c(N3CCCCCC3)nc3c(c2=O)C[C@@H](C)N(C(=O)c2ccc(Cl)c(Cl)c2)C3)cc1 [Compound C467] | 0.1 | 30 | – |
| CNC(=O)c1ccc(-n2c(NCc3ccc(-c4nc[nH]n4)cc3)nc3c(c2=O)C[C@@H](C)N(C(=O)c2ccc(Cl)c(Cl)c2)C3)cc1 [Compound C468] | 18.8 | > 50 | – |
| CNC(=O)c1ccc(-n2c(NCc3cn(C)nn3)nc3c(c2=O)C[C@@H](C)N(C(=O)c2ccc(Cl)c(Cl)c2)C3)cc1 [Compound C469] | > 25 | > 50 | – |
